Experiment [1] concerns Human immunodeficiency virus type 1 reverse transcriptase (Human immunodeficiency virus 1), Q72547 [UNDEFINED MUTATION]. The conditions noted are these: time 140.0 min, at 5 mM.
Experiment [2] addresses Human immunodeficiency virus type 1 reverse transcriptase (Human immunodeficiency virus 1, UniProt Q72547). Briefly: Inhibition of HIV-1 reverse transcriptase RT52A mutant using ABTS as substrate preincubated with compound for 1 hr followed by template-primer addition for 1 hr and measured 20 mins after substrate addition by absorbance based Roche colorimetric assay.

The values that follow come from ChEMBL document CHEMBL5380870, “Halo Library, a Tool for Rapid Identification of Ligand Binding Sites on Proteins Using Crystallographic Fragment Screening” (J Med Chem, 2023).

In general, inhibition refers to the relative decrease from the control value, in per cent. Low readings indicate a weak effect, high ones a strong effect. In the case of `N#Cc1c(N)cccc1F`, in experiment [1], the inhibition worked out at 75%.

`Cc1c(CO)cnn1-c1ccc(F)cc1`: the inhibition in experiment [1] was found to be 55%.

Take `Brc1cn[nH]c1`: in experiment [1], the inhibition was 22%.

Turning to `O=c1[nH]cnc2cccc(F)c12`, the inhibition in experiment [1] amounted to 55%.

What is called IC50 is the point on the concentration scale where inhibition reaches its midpoint. On to `Nc1ccncc1Br`, for which the IC50 in experiment [2] is 2100 µM. Also, the inhibition in experiment [1] turned out to be 99%.

`O=C(O)c1cc2cc(F)ccc2[nH]1` [5-FLUOROINDOLE-2-CARBOXYLIC ACID]: the IC50 in experiment [2] is 2900 µM. The compound further gave an inhibition in experiment [1] of 99%.

Regarding `Ic1cn[nH]c1`, the inhibition in experiment [1] turned out to be 24%.

Take `Oc1ccc(C(F)(F)F)cn1`: the inhibition in experiment [1] was 35%.

In experiment [1], `CNc1ccc(C(F)(F)F)cc1N` displayed an inhibition of 35%.

In the case of `NCCc1c(F)cccc1Cl`, the IC50 in experiment [2] was 2100 µM. Also, the inhibition in experiment [1] is 99%.

In experiment [1], `NCc1cccc(Br)c1` showed an inhibition of 96%.
